The assay has as its system 3T3-L1 cells. Kind of assay: Adipocyte differentiation (fat accumulation), Oil Red O staining. The class given is cell-based, mouse. How it is done: 3T3-L1 cells, which are mouse-derived preadipocytes, were purchased from Korean Cell Line Bank. The 3T3-L1 cells were cultured using an DMEM medium (Welgene) supplemented with 10% bovine calf serum (BCF), 100 units/mL penicillin and 100 μg/mL streptomycin (complete DMEM medium) in a humidified CO2 incubator (5% CO2/95% air) at 37° C. When the cells filled about 80% of the culture dish, the cell monolayer was washed with phosphate-buffered saline (PBS, pH 7.4) and the cells were detached by adding trypsin-2.65 mM EDTA. Then, the cells were subcultured while replacing the medium every other day.
3T3-L1 cells were seeded onto a 24-well plate at 1×10^5 cells/well. When the cells reached confluence, differentiation into adipocytes was induced by culturing the cells while replacing the medium sequentially with three differentiation media (DM). That is to say, differentiation was induced for 2 days by replacing the medium with a differentiation medium wherein DMI (1 μM dexamethasone, 0.5 mM 3-isobutyl-1-methylxanthine (IBMX) and 5 μg/mL insulin) was added to a DMEM medium containing 10% FBS. Then, differentiation was induced again for 2 days by replacing the medium with a fresh differentiation medium wherein 5 μg/mL insulin was added to a DMEM medium containing 10% FBS. Then, differentiation into adipocytes was induced by maintaining the cells for 2 days in a DMEM medium containing 10% FBS. […]

Results on one compound are retold here after patent US20240382544A1, “COMPOSITION FOR ANTI-OBESITY AND PREVENTING OR TREATING MUSCLE LOSS, CONTAINING CATECHIN GLYCOSIDE EXTRACT DERIVED FROM PLANT IN GENUS ULMUS AS ACTIVE INGREDIENT” (DR. OREGONIN INC., priority 2022, published 2024).

“Also recorded” adds a separate entry of the source.

For `OCC1(O)CO[C@@H](Oc2cc(O)c3c(c2)OC(c2ccc(O)c(O)c2)[C@@H](O)C3)C1O` (stereo partly drawn) [catechin 7-O-β-D-apiofuranoside], where the note is “3T3-L1, concentration dependence”, the “adipocyte differentiation-inhibiting ability (in words)” value is reported as “statistically significant adipocyte differentiation-inhibiting ability in a concentration-dependent manner; also recorded: inhibits the differentiation of adipocytes in a concentration-dependent manner with statistical significance”. The inhibition at 20 µg/mL (Mus musculus, 20 μg/mL (highest concentration tested), 3T3-L1, Oil Red O, read-out: adipocyte differentiation-inhibiting ability) is ≥ 40%.
